The values that follow come from patent US12503444B2, “Compound containing benzene ring and application thereof” (WUHAN LL SCIENCE AND TECHNOLOGY DEVELOPMENT CO., LTD., priority 2019, dated 2025).

Like-named read-outs stand apart in the source and are kept apart here. Some results are limits rather than exact numbers.

Series [1] in a line: In vitro metabolic stability, liver microsome incubation (guinea pig). Type of series: in vitro ADME. The note with it: 1 mg/mL liver microsome protein, 37° C.; for half-life: guinea pig, liver microsomes, read-out: T1/2 in guinea pig liver microsome min. The protocol:
(§1) The in vitro metabolic stability of the compounds disclosed herein was determined through incubation of liver microsomes of various species. A proper amount of test compound was added into a liver microsome reaction system (1 mg/mL liver microsome protein, 25 U/mL glucose-6 phosphate dehydrogenase, 1 mM NADP, 6 mM D-glucose 6-phosphate and 5 mM MgCl2), and then the mixture was incubated in a water bath kettle at 37° C. to start the reaction. At each time point, 100 μL of the reaction system was added into a centrifuge tube containing 400 μL of internal standard working solution (containing a 200 ng/mL solution of dexamethasone, diclofenac, tolbutamide and labetalol in acetonitrile) precooled at 0° C. so as to stop the reaction, and the mixture was then centrifuged at 10,000 g for 10 min at 4° C. The supernatant was collected for LC-MS assay so as to obtain the values of in vitro metabolic half-life of the test compounds in liver microsomes of various species.
In general terms: Liver microsomes are a subcellular fraction often used to study metabolism.

Series [2] deals with T1, hP2X4 (human purinergic P2X receptor subtype 4) (Homo sapiens, UniProt Q99571).
T1 sequence (Q99571 1-404 isoform Q99571-2): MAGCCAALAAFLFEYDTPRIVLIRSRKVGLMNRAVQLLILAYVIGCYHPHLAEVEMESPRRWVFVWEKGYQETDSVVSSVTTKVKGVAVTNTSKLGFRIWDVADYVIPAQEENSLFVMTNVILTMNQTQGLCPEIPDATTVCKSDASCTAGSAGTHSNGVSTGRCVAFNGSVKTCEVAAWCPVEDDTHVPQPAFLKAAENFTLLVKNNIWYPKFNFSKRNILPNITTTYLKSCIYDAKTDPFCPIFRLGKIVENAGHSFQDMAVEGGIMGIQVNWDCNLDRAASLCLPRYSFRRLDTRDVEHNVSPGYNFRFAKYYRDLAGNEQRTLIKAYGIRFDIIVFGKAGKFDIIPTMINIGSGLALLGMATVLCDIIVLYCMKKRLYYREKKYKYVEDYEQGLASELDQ
Put plainly: FLIPR assay of intracellular calcium increase induced by activation of hP2X4 expressed in HEK293 cells (agonist BZ-ATP 2.5 μM). Particulars: HEK293 cells stably expressing hP2X4, FLIPR, read-out: P2X4 IC50. Type of series: cell-based. In outline:
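HEK293 cells stably expressing hP2X4, loaded with Calcium 6 dye for 1.5 h at 37° C, then preincubated with compound 30 min at room temperature.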
In general terms: A change in cytosolic calcium serves as a functional read-out for many receptors and channels.

A short description of series [3]: In vitro metabolic stability, liver microsome incubation (rat). It counts as in vitro ADME. Particulars: 1 mg/mL liver microsome protein, 37° C.; for half-life: rat, read-out: T1/2 in rat liver microsome min. The procedure: as §1
Series [4] can be described thus: In vitro metabolic stability, liver microsome incubation (human). It counts as in vitro ADME. Particulars: 1 mg/mL liver microsome protein, 37° C.; for half-life: human, liver microsomes, read-out: T1/2 in human liver microsome min. The procedure:
as §1

The subject of series [5] is HepG2 cells. The series is described as follows: In vitro cytotoxicity assay in HepG2 cells, CCK-8 method. The note with it: read-out: HepG2 CC50, 48 h, CCK-8. In general terms: Formazan colour is commonly taken as a measure of viable cells.
Experimental: (§2) In vitro cytotoxicity assay for the compounds disclosed herein was performed in HepG2 cells using the CCK-8 method. HepG2 cells (Beina Bio) in the logarithmic growth phase were collected, the concentration of cell suspension was adjusted, and then the cells were plated on a 96-well cell culture plate at 50,000 cells/well. The cells were then incubated overnight in a cell incubator (5%/humidity, 37° C.), and after 80-90% cell confluence was achieved, test compounds or vehicle (DMSO) at various concentration gradients were added after medium change. The resulting mixture was incubated in the cell incubator (5% humidity, 37° C.) for 48 h. After the treatment, the medium in the plate was discarded. The plate was washed twice with PBS, added with CCK-8 working solution (Beyotime) at 100 μL per well, and then incubated at 37° C. for 1.5 h away from the light. Absorbance at OD450 nm was measured for each well on a microplate reader, and CC50 value of each compound was analyzed and calculated.
Experiment in series [6]: as above
Particulars: human.
Experimental: as §2

In series [7] the test system is Male Dunkin Hartley guinea pigs. Put plainly: Citric acid only cough model in guinea pigs. Type of series: in vivo. The note with it: guinea pig; for Cough inhibition rate Vs vehicle (%) / Cough latency / Mean number of coughs / Cough inhibition rate Vs baseline (%): 17.5% citric acid; for Cough inhibition rate Vs baseline (%): before vs after administration. The protocol:
Male Dunkin Hartley guinea pigs (300-350 g) were placed in an animal atomization box, and then the door of the atomization box was closed while the ultrasonic atomizer (Guangdong Yuehua) was turned on. 17.5% citric acid gas was introduced into the atomization box at a maximum atomization rate (about 2 mL/min) for 20 s, and coughs of the animals within 10 min were continuously observed from the time of the start of atomization. During the 10-min observation, coughs of the animals needed to be counted manually, and the number of coughs were judged according to cough postures of the guinea pigs, such as abdominal twitching, mouth opening, and head inclining downward abruptly. The number of coughs during the first 5 min and that during 10 min were recorded, and the cough latency of the guinea pigs, namely the time from the initiation of citric acid induction to the appearance of the 1st cough, was also recorded.
Cough inhibition rate Vs vehicle represents the percentage of reduction
[formula] in the number of coughs in the administration group compared to the vehicle group upon citric acid challenge; Cough inhibition rate Vs baseline represents the percentage of reduction
[formula] in the number of coughs in the administration group before and after administration.

For series [8], the system named is HepG2 cells.
Experimental: as §2
Where [9] appears, read: 20 mg/kg group, before administration (baseline).
Setting [10] is: 60 mg/kg group, before administration (baseline).

The term IC50 denotes the concentration at which inhibition is half-maximal. For orientation: CC50 means the concentration that lowers cell viability or growth by half. `COc1ccc(CN(Cc2ccc(OC)cc2)S(=O)(=O)c2cc(NC(=O)Cc3ccccc3Cl)cc3c2cnn3Cc2ccc(C#N)cc2)cc1` [Compound 91A, N-(4-(N,N-bis(4-methoxybenzyl)sulfamoyl)-1-(4-cyanobenzyl)-1H-indazol-6-yl)-2-(2-chlorophenyl)acetamide]: the “T1/2 in guinea pig liver microsome min” value in series [1] was determined as 1.424 h. Moreover, the IC50 in series [2] (class symbols) was no more than 10 nM. Also, the “T1/2 in rat liver microsome min” value in series [3] was found to be 2.0857 h. Further, in series [4], the “T1/2 in human liver microsome min” value was 1.6827 h. In addition, the CC50 in the series on HepG2 cells [5] was greater than 200000 nM.

With `N#Cc1ccc(Cn2cc3c(S(N)(=O)=O)cc(NC(=O)Cc4ccccc4Cl)cc3n2)cc1` [Compound 91, 2-(2-chlorophenyl)-N-(2-(4-cyanobenzyl)-4-sulfamoyl-2H-indazol-6-yl)acetamide], the half-life turned out to be 0.809 h in series [1], 1.84 h in series [3] (liver microsomes) and 3.23 h in series [4]. Further, the half-inhibitory concentration (IC50) in series [2] (class symbols) is no more than 10 nM. For the same compound, the CC50 at 48 h in series [6] was greater than 200000 nM.

In the case of `NS(=O)(=O)c1cc(NC(=O)Cc2ccccc2Cl)cc2nn(C(F)F)cc12` [Compound 1, 2-(2-chlorophenyl)-N-(2-(difluoromethyl)-4-sulfamoyl-2H-indazol-6-yl)acetamide], the “Effect on number of coughs and cough latency (in words)” value in series [7] (20 mg/kg and 60 mg/kg, compared with vehicle group or before administration) was “reduce the number of coughs and prolong the cough latency in a dose-dependent manner”; in series [7] (60 mg/kg, no significant difference from dextromethorphan at the same dosage), “significant improvement effect”. Besides, the “Cough inhibition rate Vs vehicle (%)” value came to 20.59% in series [7] (20 mg/kg) and 46.75% in series [7] (60 mg/kg). Besides, the “Cough latency” value turned out to be 94.29 s in series [7] (setting [9]); 214.29 s in series [7] (20 mg/kg, after administration); 84.88 s in series [7] (setting [10]); 221.75 s in series [7] (60 mg/kg, after administration). Besides, the “Mean number of coughs” value in series [7] (setting [9]) came to 18.57; in series [7] (20 mg/kg, after administration), 15.29; in series [7] (setting [10]), 18.50; in series [7] (60 mg/kg, after administration), 10.25. Also, the “Cough inhibition rate Vs baseline (%)” value in series [7] (20 mg/kg) is 17.69%; in series [7] (60 mg/kg), 44.59%. Moreover, the half-life in series [1] is 2.58 h; in series [3] (liver microsomes), 6.03 h; in series [4], 11.5 h. The IC50 in series [2] (numeric values) is 29.1 nM. The CC50 at 48 h in series [6] is greater than 200000 nM.

Regarding `CCCn1ncc2c(S(N)(=O)=O)cc(NC(=O)Cc3ccccc3Cl)cc21` [Compound 5-B, 2-(2-chlorophenyl)-N-(1-propyl-4-sulfonylamino-1H-indazol-6-yl)acetamide], the IC50 in series [2] (numeric values) stood at 2.2 nM. In the series with HepG2 cells [8], the CC50 was greater than 200000 nM. Also, the “T1/2 in human liver microsome min” value in series [4] was 1.094 h.

For the compound `NS(=O)(=O)c1cc(NC(=O)Cc2ccccc2Cl)cc2nc(-c3ccccc3)[nH]c12` [Compound 53, 2-(2-chlorophenyl)-N-(2-phenyl-7-sulfamoyl-1H-benzo[d]imidazol-5-yl)acetamide], the half-life in series [1] stood at 0.154 h; in series [3] (liver microsomes) it was 0.753 h; in series [4] it was 3.79 h. Also, the IC50 in series [2] (class symbols) lay within 200 to 5000 nM.

For `CC(C)CCn1ncc2c(S(N)(=O)=O)cc(NC(=O)Cc3ccccc3Cl)cc21` [Compound 8-B, 2-(2-chlorophenyl)-N-(1-isopentyl-4-sulfamoyl-2H-indazol-6-yl)acetamide], the IC50 in series [2] (numeric values) amounted to 0.38 nM. Also, the CC50 in the series on HepG2 cells [8] was greater than 200000 nM. For the same compound, the “T1/2 in human liver microsome min” value in series [4] was 0.4488 h.

As to `CCCn1cc2c(S(N)(=O)=O)cc(NC(=O)Cc3ccccc3Cl)cc2n1` [Compound 5-A, 2-(2-chlorophenyl)-N-(2-propyl-4-sulfonylamino-2H-indazol-6-yl)acetamide], the half-life in series [1] worked out at 0.0978 h; in series [3] (liver microsomes), 2.37 h; in series [4] it was 5.96 h. Further, the IC50 in series [2] (numeric values) amounted to 5.24 nM. This compound displayed a CC50 at 48 h in series [6] greater than 200000 nM.

Regarding `NS(=O)(=O)c1cc(NC(=O)Cc2ccccc2Cl)cc2n[nH]cc12` [Compound 2, 2-(2-chlorophenyl)-N-(4-sulfamoyl-2H-indazol-6-yl)acetamide], the half-life in series [1] came to 3.54 h; in series [3] (liver microsomes), 0.809 h; in series [4], 2.57 h. Also, the IC50 in series [2] (numeric values) was determined as 5.4 nM. In addition, the CC50 at 48 h in series [6] was greater than 200000 nM.

`NS(=O)(=O)c1cc(NC(=O)Cc2ccccc2Cl)cc2c1cnn2CC1CCC1` [Compound 24-B, 2-(2-chlorophenyl)-N-(1-(cyclobutylmethyl)-4-sulfamoyl-1H-indazol-6-yl)acetamide]: the results for the half-life in series [1], in series [3] (liver microsomes) and in series [4] were 2.41 h, 0.768 h and 1.84 h, respectively. Further, the IC50 in series [2] (class symbols) is no more than 10 nM. This compound gave a CC50 at 48 h in series [6] greater than 200000 nM.

`NS(=O)(=O)c1cc(NC(=O)Cc2ccccc2Cl)cc2c1cnn2-c1ccc(F)cc1` [Compound 44, 2-(2-chlorophenyl)-N-(1-(4-fluorophenyl)-4-sulfamoyl-1H-indazol-6-yl)acetamide]: the half-life in series [1] turned out to be 1.2 h; in series [3] (microsomes) it was 1.53 h; in series [4] it was 5.08 h. Moreover, the IC50 in series [2] (numeric values) was determined as 36.8 nM.

`CC(C)Cn1ncc2c(S(N)(=O)=O)cc(NC(=O)Cc3ccccc3Cl)cc21` [Compound 7-B, 2-(2-chlorophenyl)-N-(1-isobutyl-4-sulfamoyl-2H-indazol-6-yl)acetamide]: in series [2] (numeric values), the IC50 was 2.33 nM. In addition, in the series on HepG2 cells [8], the CC50 was found to be 150000 nM. Moreover, the “T1/2 in human liver microsome min” value in series [4] came out at 0.5413 h.

As for `NS(=O)(=O)c1cc(NC(=O)Cc2ccccc2Cl)cc2nn(Cc3ccc(F)cc3)cc12` [Compound 88, 2-(2-chlorophenyl)-N-(2-(4-fluorobenzyl)-4-sulfamoyl-2H-indazol-6-yl)acetamide], the values for the half-life in series [1], in series [3] (liver microsomes) and in series [4] were 2 h, 2.07 h and 8.54 h, respectively. Further, the IC50 in series [2] (class symbols) was no more than 10 nM. For the same compound, the CC50 at 48 h in series [6] was greater than 200000 nM.
